≈ marks a conversion by molar mass, not a printed value. Like-named read-outs stand apart in the source and are kept apart here. Blank lines part the entries; values can stand above or below the compound they belong to.
Tests used:
[1] = tested on: Methicillin resistant Staphylococcus aureus (ATCC 33591); experiment: MIC by microbroth dilution, methicillin resistant S. aureus; format: cell-based; details: ATCC33591, read-out: Minimum inhibitory concentration (MIC) Methicillin resistant Staphylococcus aureus (ATCC 33591)
Experimental: (§1) Shown below are the biological activities of representative compounds of the invention. The compounds were tested by the microbroth dilution method (National committee for Clinical Laboratory Standards, M07-A8, Volume 29, 2009) to determine the Minimum Inhibitory Concentration (MIC) against Methicillin sensitive and resistant Staphylococcus aureus. The MICs in the presence of 10% BSA was also tested. Further, select compounds were tested for metabolic stability using mouse liver microsomes based on published protocols (Journal of Biological Sciences, 2008, 8, 1110-1114).

[2] = tested on: Staphylococcus aureus (ATCC29213); experiment: MIC by microbroth dilution, methicillin sensitive S. aureus; format: cell-based; details: read-out: Minimum inhibitory concentration (MIC) Staphylococcus aureus (ATCC29213)
Experimental: as §1

[3] = Pharmacokinetic profile in male Swiss albino mice; details: mouse, in vivo
Experimental: The following compounds were dosed to male Swiss albino mice to determine the pharmacokinetic profiles.

[4] = tested on: Bacillus subtilis (ΔFabI, ΔFabL; Pxylose SaFabI); experiment: Target specificity: MIC in B. subtilis expressing S. aureus FabI under xylose inducible promoter; format: cell-based
Experimental: To test for target specificity, the MIC was determined in a Bacillus subtilis strain in which the two FabI homologues (FabI and FabL) were deleted and replaced with S. aureus FabI (Sa FabI) under a Xylose inducible promoter. By varying the amount of xylose in the growth medium, the expression of FabI was proportionately modified. Compounds specifically targeting Sa FabI show an increased MIC when higher amounts of FabI are present in the cell (high Xylose concentrations). In contrast, when FabI levels are low, the cell becomes hypersusceptible, reducing the MIC (low Xylose concentrations). […] Shown below are data for target specificity.

[5] = Metabolic stability in mouse liver microsomes; format: in vitro ADME
Experimental: as §1

[6] = tested on: Methicillin resistant Staphylococcus aureus (ATCC 33591); experiment: MIC in the presence of BSA; format: cell-based; details: ATCC33591, 10% BSA
Experimental: as §1

[7] = intravenous single dose 5 mg/kg body weight
[8] = read-out: MIC in the presence of 0.005% Xylose (low Xylose concentration)
[9] = read-out: MIC in the presence of 0.5% Xylose (high Xylose concentration)

MIC [1]: > 8 µg/mL | MIC [2]: > 8 µg/mL
Structure (SMILES): Cn1c2c(c3ccccc31)CN(C(=O)/C=C/c1cnc3c(c1)C1(CCC1)C(=O)N3)CC2 [VT-02-00082, (E)-5′-(3-(5-methyl-3,4-dihydro-1H-pyrido[4,3-b]indol-2(5H)-yl)-3-oxoprop-1-enyl)spiro[cyclobutane-1,3′-pyrrolo[2,3-b]pyridin]-2′(1′H)-one]

MIC [1]: > 32 µg/mL | MIC [2]: > 32 µg/mL
Structure (SMILES): CN(Cc1cc2ccccc2n1C)C(=O)/C=C/c1ccc2[nH]c3ncccc3c2c1 [VT-02-00034a, (E)-N-methyl-N-((1-methyl-1H-indol-2-yl)methyl)-3-(9H-pyrido[2,3-b]indol-6-yl)acrylamide]

Structure (SMILES): CN(Cc1cc2ccccc2n1C)C(=O)/C=C/c1cnc2[nH]nc(N(C)C)c2c1 [VT-02-00039, (E)-3-(3-Dimethylamino-1H-pyrazolo[3,4-b]pyridin-5-yl)-N-methyl-N-(1-methyl-1H-indol-2-ylmethyl)-acrylamide]
AUC [3, 7]: 908 ng·h/mL | Cmax [3, 7]: 868 ng/mL | clearance [3, 7]: 91.5 mL/min/kg | half-life [3, 7]: 46.2 min | bioavailability ([3]; po): 19% | MIC [1]: 2 µg/mL (≈ 5.15 µM) | MIC [4, 8]: 60 ng/mL | MIC [4, 9]: 1000 ng/mL | MIC [2]: 2 µg/mL (≈ 5.15 µM) | Metabolic stability (mouse liver microsomes) % of compound remaining after 30 minutes [5]: 46%

Structure (SMILES): CNc1n[nH]c2ncc(/C=C/C(=O)N(C)Cc3cc4ccccc4n3C)cc12 [VT-02-00036, (E)-N-Methyl-3-(3-methylamino-1H-pyrazolo[3,4-b]pyridin-5-yl)-N-(1-methyl-1H-indol-2-ylmethyl)-acrylamide]
MIC [1]: 8 µg/mL (≈ 21.4 µM) | MIC [4, 8]: 500 ng/mL | MIC [4, 9]: 2000 ng/mL | MIC [2]: 8 µg/mL (≈ 21.4 µM)

Structure (SMILES): CN(Cc1cc2ccccc2n1C)C(=O)/C=C/c1cnc2c(c1)C(C)(C)C(=O)N2 [VT-02-00055, (E)-3-(3,3-dimethyl-2-oxo-2,3-dihydro-1H-pyrrolo[2,3-b]pyridin-5-yl)-N-methyl-N-((1-methyl-1H-indol-2-yl)methyl)acrylamide]
MIC [1]: 0.25 µg/mL (≈ 0.644 µM) | MIC [4, 8]: 60 ng/mL | MIC [4, 9]: 2000 ng/mL | MIC [2]: 0.25 µg/mL (≈ 0.644 µM) | MIC [6]: 2 µg/mL | Metabolic stability (mouse liver microsomes) % of compound remaining after 30 minutes [5]: 40.3%

MIC [1]: > 16 µg/mL | MIC [2]: > 16 µg/mL
Structure (SMILES): CCn1c(=O)[nH]c2ncc(/C=C/C(=O)N(C)Cc3nc4ccccc4s3)cc21 [VT-02-00054, (E)-N-(benzo[d]thiazol-2-ylmethyl)-3-(1-ethyl-2-oxo-2,3-dihydro-1H-imidazo[4,5-b]pyridin-6-yl)-N-methylacrylamide]

Structure (SMILES): CN(Cc1cc2ccccc2n1C)C(=O)/C=C/c1cnc2[nH]c(=O)n(C)c2c1 [VT-02-00043, (E)-N-Methyl-N-(1-methyl-1H-indol-2-ylmethyl)-3-(1-methyl-2-oxo-2,3-dihydro-1H-imidazo[4,5-b]pyridin-6-yl)-acrylamide]
MIC [1]: 8 µg/mL (≈ 21.3 µM) | MIC [4, 8]: 7.8 ng/mL | MIC [4, 9]: 30 ng/mL | MIC [2]: 4 µg/mL (≈ 10.7 µM)

Structure (SMILES): Cc1c(CN(C)C(=O)/C=C/c2cnc3c(c2)C(C)(C)C(=O)N3)sc2ccccc12 [VT-02-00069, (E)-3-(3,3-dimethyl-2-oxo-2,3-dihydro-1H-pyrrolo[2,3-b]pyridin-5-yl)-N-methyl-N-((3-methylbenzo[b]thiophen-2-yl)methyl)acrylamide]
MIC [1]: 0.015 µg/mL (≈ 0.037 µM) | MIC [4, 8]: 0.2 ng/mL | MIC [4, 9]: 15 ng/mL | MIC [2]: 0.015 µg/mL (≈ 0.037 µM) | MIC [6]: 1 µg/mL | Metabolic stability (mouse liver microsomes) % of compound remaining after 30 minutes [5]: 10%

MIC [1]: > 32 µg/mL | MIC [2]: > 32 µg/mL
Structure (SMILES): CCNc1n[nH]c2ncc(/C=C/C(=O)N(C)Cc3cc4ccccc4n3C)cc12 [VT-02-00038, (E)-3-(3-(ethylamino)-1H-pyrazolo[3,4-b]pyridin-5-yl)-N-methyl-N-((1-methyl-1H-indol-2-yl)methyl)acrylamide]

Structure (SMILES): CN(Cc1cc2ccccc2n1C)C(=O)/C=C/c1cnc2[nH]c(=O)[nH]c2c1 [VT-02-00002, (E)-N-methyl-N-((1-methyl-1H-indol-2-yl)methyl)-3-(2-oxo-2,3-dihydro-1H-imidazo[4,5-b]pyridin-6-yl)acrylamide]
MIC [1]: 2 µg/mL (≈ 5.53 µM) | MIC [4, 8]: 60 ng/mL | MIC [4, 9]: 1000 ng/mL | MIC [2]: 1 µg/mL (≈ 2.77 µM)

MIC [1]: > 16 µg/mL | MIC [2]: > 16 µg/mL
Structure (SMILES): CN(Cc1cc2ccccc2n1C)C(=O)/C=C/c1cnc2[nH]cnc2c1 [VT-02-00060, (E)-3-(3H-imidazo[4,5-b]pyridin-6-yl)-N-methyl-N-((1-methyl-1H-indol-2-yl)methyl)acrylamide]

Structure (SMILES): CN(Cc1cc2ccccc2n1C)C(=O)/C=C/c1cnc2[nH]ncc2c1 [VT-02-00032, (E)-N-Methyl-N-(1-methyl-1H-indol-2-ylmethyl)-3-(1H-pyrazolo[3,4-b]pyridin-5-yl)-acrylamide]
MIC [1]: 4 µg/mL (≈ 11.6 µM) | MIC [4, 8]: 125 ng/mL | MIC [4, 9]: 4000 ng/mL | MIC [2]: 4 µg/mL (≈ 11.6 µM)

MIC [1]: > 32 µg/mL | MIC [2]: > 32 µg/mL
Structure (SMILES): CN1CCC(Nc2n[nH]c3ncc(/C=C/C(=O)N(C)Cc4cc5ccccc5n4C)cc23)CC1 [VT-02-00037, (E)-N-methyl-N-((1-methyl-1H-indol-2-yl)methyl)-3-(3-(1-methylpiperidin-4-ylamino)-1H-pyrazolo[3,4-b]pyridin-5-yl)acrylamide]

MIC [1]: > 16 µg/mL | MIC [2]: > 16 µg/mL
Structure (SMILES): CN(Cc1cc2ccccc2n1C)C(=O)/C=C/c1cnc2[nH]c(=O)oc2c1 [VT-02-00058, (E)-N-methyl-N-((1-methyl-1H-indol-2-yl)methyl)-3-(2-oxo-2,3-dihydrooxazolo[4,5-b]pyridin-6-yl)acrylamide]

Structure (SMILES): COc1n[nH]c2ncc(/C=C/C(=O)N(C)Cc3cc4ccccc4n3C)cc12 [VT-02-00046, (E)-3-(3-Methoxy-1H-pyrazolo[3,4-b]pyridin-5-yl)-N-methyl-N-(1-methyl-1H-indol-2-ylmethyl)-acrylamide]
MIC [1]: > 32 µg/mL | MIC [4, 8]: > 32000 ng/mL | MIC [4, 9]: > 32000 ng/mL | MIC [2]: > 32 µg/mL

Structure (SMILES): CN(Cc1cn(C)c2ccccc12)C(=O)/C=C/c1ccc2c(c1)C1(CCC1)C(=O)N2 [VT-02-00085, (E)-N-methyl-N-((1-methyl-1H-indol-3-yl)methyl)-3-(2′-oxospiro[cyclobutane-1,3′-indoline]-5′-yl)acrylamide]
MIC [1]: 0.06 µg/mL (≈ 0.15 µM) | MIC [4, 8]: 0.97 ng/mL | MIC [4, 9]: 60 ng/mL | MIC [2]: 0.06 µg/mL (≈ 0.15 µM) | MIC [6]: 1 µg/mL | Metabolic stability (mouse liver microsomes) % of compound remaining after 30 minutes [5]: 33%

Structure (SMILES): CN(Cc1cc2ccccc2n1C)C(=O)/C=C/c1cnc2c(c1)C1(CCC1)C(=O)N2 [VT-02-00070, (E)-N-methyl-N-((1-methyl-1H-indol-2-yl)methyl)-3-(2′-oxo-1′,2′-dihydrospiro[cyclobutane-1,3′-pyrrolo[2,3-b]pyridine]-5′-yl)acrylamide]
MIC [1]: 0.5 µg/mL (≈ 1.25 µM) | MIC [4, 8]: < 0.000119 ng/mL | MIC [4, 9]: 7.8 ng/mL | MIC [2]: 0.5 µg/mL (≈ 1.25 µM) | MIC [6]: 2 µg/mL | Metabolic stability (mouse liver microsomes) % of compound remaining after 30 minutes [5]: 45%

Structure (SMILES): CN(Cc1cc2ccccc2n1C)C(=O)/C=C/c1cnc2[nH]nc(N)c2c1 [VT-02-00029a, (E)-3-(3-amino-1H-pyrazolo[3,4-b]pyridin-5-yl)-N-methyl-N-((1-methyl-1H-indol-2-yl)methyl)acrylamide]
MIC [1]: 2 µg/mL (≈ 5.55 µM) | MIC [4, 8]: 30 ng/mL | MIC [4, 9]: 500 ng/mL | MIC [2]: 1 µg/mL (≈ 2.77 µM)

Structure (SMILES): CCn1c(=O)[nH]c2ncc(/C=C/C(=O)N(C)Cc3cc4ccccc4s3)cc21 [VT-02-00049, (E)-N-(benzo[b]thiophen-2-ylmethyl)-3-(1-ethyl-2-oxo-2,3-dihydro-1H-imidazo[4,5-b]pyridin-6-yl)-N-methylacrylamide]
MIC [1]: 0.5 µg/mL (≈ 1.27 µM) | MIC [4, 8]: 0.48 ng/mL | MIC [4, 9]: 31 ng/mL | MIC [2]: 0.5 µg/mL (≈ 1.27 µM) | Metabolic stability (mouse liver microsomes) % of compound remaining after 30 minutes [5]: 44%

Structure (SMILES): Cc1c(CN(C)C(=O)/C=C/c2cnc3c(c2)C2(CCCCC2)C(=O)N3)sc2ccccc12 [VT-02-00075, (E)-N-methyl-N-((3-methylbenzo[b]thiophen-2-yl)methyl)-3-(2′-oxo-1′,2′-dihydrospiro[cyclohexane-1,3′-pyrrolo[2,3-b]pyridine]-5′-yl)acrylamide]
MIC [1]: 0.5 µg/mL (≈ 1.12 µM) | MIC [4, 8]: < 0.00191 ng/mL | MIC [4, 9]: 0.00763 ng/mL | MIC [2]: 0.5 µg/mL (≈ 1.12 µM) | MIC [6]: 4 µg/mL | Metabolic stability (mouse liver microsomes) % of compound remaining after 30 minutes [5]: 5%

Structure (SMILES): Cc1ccc2oc(CN(C)C(=O)/C=C/c3ccc4c(c3)C3(CCC3)C(=O)N4)c(C)c2c1 [VT-02-00086, (E)-N-((3,5-dimethylbenzofuran-2-yl)methyl)-N-methyl-3-(2′-oxospiro[cyclobutane-1,3′-indoline]-5′-yl)acrylamide]
MIC [1]: 0.5 µg/mL (≈ 1.21 µM) | MIC [4, 8]: 60 ng/mL | MIC [4, 9]: 500 ng/mL | MIC [2]: 0.5 µg/mL (≈ 1.21 µM) | MIC [6]: 8 µg/mL | Metabolic stability (mouse liver microsomes) % of compound remaining after 30 minutes [5]: 26%

MIC [1]: 2 µg/mL (≈ 5.55 µM) | MIC [2]: 2 µg/mL (≈ 5.55 µM)
Structure (SMILES): CN(Cc1cc2ccccc2n1C)C(=O)/C=C/c1cnc2c(c1)CC(=O)N2 [VT-02-00050, (E)-N-methyl-N-((1-methyl-1H-indol-2-yl)methyl)-3-(2-oxo-2,3-dihydro-1H-pyrrolo[2,3-b]pyridin-5-yl)acrylamide]

MIC [1]: > 64 µg/mL | MIC [2]: > 64 µg/mL
Structure (SMILES): CN(Cc1cc2ccccc2n1C)C(=O)/C=C/c1cnc2[nH]c3ccccc3c2c1 [VT-02-00034, (E)-N-methyl-N-((1-methyl-1H-indol-2-yl)methyl)-3-(9H-pyrido[2,3-b]indol-3-yl)acrylamide]
